According to US10704024B2, “Method for producing mesenchymal cells with promoted c-MPL receptor expression on cell surface” (AdipoSeeds, Inc., priority 2015, dated 2020):

Tests used:
CMK cells [1] = details: cited from earlier work
[2] = test system: Human primary culture preadipocytes (HPAd); assay: Culture of preadipocytes in basic medium with TPO; c-MPL receptor positive cells by flow cytometry and immunostaining; assay type: cell-based
Method: In order to check whether expression of a c-MPL receptor on a cell surface of a mesenchymal cell is promoted or not, the following culture experiment was carried out by culturing mesenchymal cells in a mesenchymal cell culturing basic medium comprising a c-MPL receptor active substance. Note that, in the culture experiment, preadipocytes were used as the mesenchymal cells.
Human primary culture preadipocytes (Human Preadipocytes: HPAd) manufactured by CELL APPLICATIONS were prepared. A culture dish was coated with collagen and then a culture medium was added to the dish. As the culture medium, DMEM medium (Dulbecco's Modified Eagle's Medium, manufactured by Life Technology Co.), to which a 10% fetal bovine serum (manufactured by Sigma), a 1% non-essential amino acid(s) (manufactured by Life Technology Co.), a 100 U/mL penicillin-streptomycin solution (manufactured by Life Technology Co.) and 50 ng/mL recombinant human TPO (manufactured by R&D Systems) were added, was used. The preadipocytes were cultured in the culture medium at 37° C. for 3 days. […] The preadipocytes (hereinafter referred to as “the cell population of preadipocytes (TPO+)”) were labeled with a fluorescence-labeled anti c-MPL antibody (manufactured by BD Bioscience), and fluorescence was measured by flow cytometry. When the ratio of c-MPL receptor positive cells was determined in this manner, the ratio was 3.68±0.39%. Note that, the cell population of preadipocytes (TPO+) was immuno-stained with a “fluorescence-labeled anti c-MPL antibody” and “DAPI (4′,6-diamidino-2-phenylindole)”. In the right panel, cells emitting fluorescence derived from the fluorescence-labeled anti c-MPL antibody are observed around the circular fluorescence emitted from nuclei stained with DAPI.
In contrast, the preadipocytes (hereinafter referred to as “cell population of preadipocytes (TPO−)”) were cultured in the same method except that recombinant human TPO was not added to a culture medium. When the ratio of the c-MPL receptor positive cells was determined by flow cytometry, the ratio was 0.67±0.12%. […]

[3] = test system: cell population of preadipocytes (TPO+); assay: Differentiation induction of preadipocytes into megakaryocytes/platelets in MKLI medium; CD41 positive cells by flow cytometry; assay type: cell-based, human
Method: In order to check whether “cell population of preadipocytes (TPO+)” obtained in Example 1 can be actually used for efficient production of megakaryocytes/platelets (megakaryocyte and/or platelet), differentiation of preadipocytes into megakaryocyte/platelets was induced in accordance with the method described in Patent Document 1.
A culture dish was coated with collagen and then a culture medium was added to the dish. As the culture medium, MKLI medium (megakaryocyte lineage induction medium) known as a medium which can induce differentiation of hematopoietic stem cells into megakaryocytes/platelets, was used. […]
The “cell population of preadipocytes (TPO+)” obtained in Example 1 was cultured in MKLI medium as mentioned above at 37° C. and in the conditions of a CO2 concentration of 5% for 7 days. After culture, the cell population was separately taken and the ratio (%) of CD41 (specific marker of megakaryocytes or platelets) positive cells in the cell population was determined. […]
In contrast, the ratio of CD41 positive cells in the “cell population of preadipocytes (TPO−)” obtained in Example 1 was determined by flow cytometry. […]

CMK cells [4] = details: luciferase gene ligated downstream of the promoter; cited from earlier work

Q: For thrombopoietin [TPO], which “expression of a c-MPL receptor on the surface of CMK cells” value (CMK cells [1]) is on record?
A: Its value is “reduces expression”.

Q: What about the “ratio of c-MPL receptor positive cells” value ([2]; 50 ng/mL recombinant human TPO, 37° C., 3 days, fluorescence-labeled anti c-MPL antibody, flow cytometry) of the same substance?
A: Its value is 3.68±0.39%.

Q: What about the “increase of the ratio of c-MPL receptor positive cells relative to the case where TPO is not added” value ([2]; TPO added to culture medium vs not added) of the same substance?
A: The value was “about 5.5 time”.

Q: And the “c-MPL receptor positive cells by immunostaining (FIG. 1, right panel)” value ([2]; TPO added, 3 days, fluorescence-labeled anti c-MPL antibody and DAPI)?
A: The value was “a large number of the cells, i.e., c-MPL receptor positive cells are present”.

Q: And the “number of megakaryocytes/platelets produced relative to preadipocytes cultured in medium not comprising recombinant TPO” value ([3]; TPO+ vs TPO− preadipocytes)?
A: The value was “about 1.7 times”.

Q: And the “ratio of CD41 positive cells in the cell population” value ([3]; preadipocytes pre-cultured with TPO, then MKLI medium 37° C., 5% CO2, 7 days, FITC-labeled anti CD41 antibody, flow cytometry)?
A: Its value is 28.5±2.1%.

Q: What about the “activity of the promotor of a c-MPL receptor gene” value (CMK cells [4]) of the same substance?
A: Its value is “induced”.
